# In US20200009134A1, “Method and Compound for Modifying Circadian Clock” (Gritscience Biopharmaceuticals Co., Ltd., priority 2017, published 2020):
# Key:
# [1] = tested on: U2OS cells expressing Per2-luciferase; assay: Circadian rhythm of U2OS cells expressing Per2-luciferase; format: cell-based, human; conditions: for Phenotype: phase of the circadian rhythm / Phenotype: Period shortening: Cay10576 15 μM, dinaciclib 10 nM, Cdk/Crk inhibitor 10 nM, n=4 (FIG. 1b, 1c); for Phenotype: Period lengthening: IKBKB inhibitors, all at 10 μM, n=5 (FIG. 1a)
# Experimental: (a) IKBKB inhibitors. The concentration of all the inhibitors was 10 μM, n=5. (b) IKBKE inhibitors.
# The above experiments were conducted with the drug added to the culture media from the beginning.
# [2] = tested on: U2OS cells expressing Per2-luciferase; assay: as above; format: cell-based, human
# SCN explants = assay: Circadian rhythm of SCN explants from Per2::Luciferase mice; format: cell-based, mouse; conditions: applied at CT12; p<0.01, n=8
# Excerpt: U2OS cells are just cultured cells, while the SCN is the master clock in mammals. We dissected the SCN from mice expressing the Per2::Luciferase gene which faithfully reported the circadian rhythm (Yoo et al., 2004).
# [3] = applied from the beginning of the assay
SMILES,Phenotype: phase of the circadian rhythm [1],"Phenotype: Period shortening [1, 3]",Phenotype: Period lengthening [1],other results
COc1cc2ncn(-c3cc(OCc4ccccc4S(C)(=O)=O)c(C#N)s3)c2cc1OC [Cay10576],delay,"Period shortening, 0.3 ± 0.060 h; phase",,"Phenotype: Period shortening ([1]; applied from the beginning of the assay, listed as Cayl0576): 0.3 h"
"CC(C)c1[nH]n(-c2c(Cl)cccc2Cl)c2nc(Cc3ccc(OCCO)cc3)nc(=O)c1-2 [Cdk/crk inhibitor, 1-(2,6-dichlorophenyl)-6-[[4-(2-hydroxyethoxy)phenyl]methyl]-3-propan-2-yl-2H-pyrazolo[3,4-d]pyrimidin-4-one]",delay,"Period shortening, 0.5 ± 0.074 h; phase",,
CCc1cnn2c(NCc3ccc[n+]([O-])c3)cc(N3CCCC[C@H]3CCO)nc12 [Dinaciclib],,"Period shortening, 0.6 ± 0.050 h; phase",,"Phase delay ([2]; applied at CT6, p<0.001, n=5): 7.543 ± 0.6185 h; Phase delay ([2]; applied at CT12, p<0.0001, n=5): 5.808 ± 0.5455 h; Phase delay ([2]; applied at CTO, p<0.01, n=5): 4.092 ± 0.9062 h; Phase advance ([2]; introduced at CT18): 1.7 ± 0.81 h; Phenotype: Period shortening ([1]; applied from the beginning of the assay, listed as dinaciclib): 0.6 h; Increase of amplitude [1, 3]: 1.78 fold; Phase advance of SCN explants (SCN explants): 2.488 ± 0.7391 h"
"NC(=O)Nc1sc(-c2ccc(F)cc2)cc1C(N)=O [Ikk2 inhibitor iv, 2-(carbamoylamino)-5-(4-fluorophenyl)thiophene-3-carboxamide]",,,"Period lengthening, 3.16 ± 0.167 h",
"O=C(Nc1cc(C(F)(F)F)cc(C(F)(F)F)c1)c1cc(Cl)ccc1O [Ikk2 inhibitor v, N-[3,5-bis(trifluoromethyl)phenyl]-5-chloro-2-hydroxybenzamide]",,,"Period lengthening, 1.84 ± 0.192 h",
"NC(=O)Nc1sc(-c2ccccc2)cc1C(N)=O [Ikk2 inhibitor vi, 2-[(aminocarbonyl)amino]-5-phenyl-3-thiophenecarboxamide]",,,"Period lengthening, 1.25 ± 0.149 h",
